Results: patent publication US20260250290A1 (BRISTOL-MYERS SQUIBB COMPANY, priority 2023, published 2026)
Structures can show the parent of a compound that is named as a salt.

Target: T1, full length SGK1 (Homo sapiens, UniProt O00141)
T1 construct: 125 μM full length SGK1 (Life Technologies Part #PR7358A); purchased Life Technologies PR7358A
T1 sequence (O00141 1-431): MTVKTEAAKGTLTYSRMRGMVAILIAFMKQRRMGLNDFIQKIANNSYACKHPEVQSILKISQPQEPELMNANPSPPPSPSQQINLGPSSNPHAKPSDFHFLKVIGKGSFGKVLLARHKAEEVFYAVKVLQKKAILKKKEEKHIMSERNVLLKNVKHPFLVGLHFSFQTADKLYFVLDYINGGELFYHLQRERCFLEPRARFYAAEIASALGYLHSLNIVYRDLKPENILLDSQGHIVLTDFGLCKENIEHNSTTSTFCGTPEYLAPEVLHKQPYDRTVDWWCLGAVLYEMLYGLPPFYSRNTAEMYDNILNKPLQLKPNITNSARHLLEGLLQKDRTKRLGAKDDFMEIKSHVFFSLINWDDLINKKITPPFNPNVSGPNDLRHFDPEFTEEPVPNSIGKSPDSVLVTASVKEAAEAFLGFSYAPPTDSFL
Assay: SGK1 inhibition Assay A (Caliper LabChip electrophoretic separation of fluorescent peptide substrate and phosphorylated product)
Assay type: biochemical
Details: Assay A; 20 μM ATP, 40 min incubation; read-out: SGK1 IC50

Compound | IC50 [nM]
Nc1ncnn2c(-c3ccnc4[nH]ccc34)cc(N3CCC[C@@H](NC(=O)c4ccc(Cl)s4)C3)c12 [Example 205, (R)-N-(1-(4-amino-7-(1H-pyrrolo[2,3-b]pyridin-4-yl)pyrrolo[2,1-f][1,2,4]triazin-5-yl)piperidin-3-yl)-5-chlorothiophene-2-carboxamide, TFA] | 7
CN(C)CCOc1cc(C(F)F)sc1C(=O)N[C@@H]1CCCN(c2cc(-c3ccnc(N)c3)n3ncnc(N)c23)C1 [Example 304, (R)-N-(1-(4-amino-7-(2-aminopyridin-4-yl)pyrrolo [2,1-f][1,2,4]triazin-5-yl)piperidin-3-yl)-5-(difluoromethyl)-3-(2-(dimethylamino)ethoxy) thiophene-2-carboxamide] | 3
CN1CCN(CCOc2cc(Cl)sc2C(=O)N[C@@H]2CCCN(c3cc(C4=CCN(S(C)(=O)=O)C4)n4ncnc(N)c34)C2)CC1 [Example 273, (R)—N-(1-(4-amino-7-(1-(methylsulfonyl)-2,5-dihydro-1H-pyrrol-3-yl)pyrrolo[2,1-f][1,2,4]triazin-5-yl)piperidin-3-yl)-5-chloro-3-(2-(4-methylpiperazin-1-yl)ethoxy)thiophene-2-carboxamide] | 5
CN(C)CCOc1cc(Cl)sc1C(=O)N[C@@H]1CCCN(c2cc(-c3ccc(-n4cncn4)nc3)n3ncnc(N)c23)C1 [Example 190, (R)-N-(1-(7-(6-(1H-1,2,4-triazol-1-yl)pyridin-3-yl)-4-aminopyrrolo[2,1-f][1,2,4]triazin-5-yl)piperidin-3-yl)-5-chloro-3-(2-(dimethylamino)ethoxy) thiopbene-2-carboxamide] | 19
tert-butyl (R)-3- ((2-((1-(4-amino- 7-(6-cyanopyridin-3- yl)pyrrolo[2,1-f] [1,2,4]triazin-5- yl)piperidin-3- yl)carbamoyl) benzo[b]thiophen- 3-yl)oxy)azetidine- 1-carboxylate [Example 672] | 65
COCCOc1cc(Cl)sc1C(=O)N[C@@H]1CCCN(c2cc(-c3ccnc(F)c3)n3ncnc(N)c23)C1 [Example 147, (R)-N-(1-(4-amino-7-(2-fluoropyridin-4-yl)pyrrolo[2,1-f][1,2,4]triazin-5-yl)piperidin-3-yl)-5-chloro-3-(2-methoxyethoxy)thiophene-2-carboxamide] | 4
CCN(CC)CCOc1cc(C(F)F)sc1C(=O)N[C@@H]1CCCN(c2cc(-c3cncnc3)n3ncnc(N)c23)C1 [Example 410, (R)-N-(1-(4-amino-7-(pyrimidin-5-yl)pyrrolo[2,1-f] [1,2,4]triazin-5-yl)piperidin-3-yl)-3-(2-(diethylamino)ethoxy)-5-(difluoromethyl) thiophene-2-carboxamide] | 198
CC(=O)N1CC=C(c2cc(N3CCC[C@@H](NC(=O)c4sc(C(F)F)cc4C4CCN(C(C)C)C4)C3)c3c(N)ncnn23)C1 (stereo partly drawn) [Example 399, N-((R)-1-(7-(1-acetyl-2,5-dihydro-1H-pyrrol-3-yl)-4-aminopyrrolo[2,1-f][1,2,4]triazin-5-yl)piperidin-3-yl)-5-(difluoromethyl)-3-(1-isopropylpyrrolidin-3-yl)thiophene-2-carboxamide] | 310
CN(C)CCOc1cc(C2CC2)sc1C(=O)N[C@@H]1CCCN(c2cc(-c3ccc(C(N)=O)c(F)c3)n3ncnc(N)c23)C1 [Example 373, (R)-N-(1-(4-amino-7-(4-carbamoyl-3-fluorophenyl)pyrrolo[2,1-f][1,2,4]triazin-5-yl)piperidin-3-yl)-5-cyclopropyl-3-(2-(dimethylamino)ethoxy) thiophene-2-carboxamide] | 2
CC(=O)N1CC=C(c2cc(N3CCC[C@@H](NC(=O)c4sc(Cl)cc4OCC4CCNCC4)C3)c3c(N)ncnn23)C1 [Example 640, (R)-N-(1-(7-(1-acetyl-2,5-dihydro-1H-pyrrol-3-yl)-4-aminopyrrolo[2,1-f][1,2,4]triazin-5-y1)piperidin-3-y1)-5-chloro-3-(piperidin-4-ylmethoxy)thiophene~2-carboxamide] | 8
COC(=O)N1CC=C(c2cc(N3CCC[C@@H](NC(=O)c4sc(C5CC5)cc4OCCN(C)C)C3)c3c(N)ncnn23)C1 [Example 371, Methyl (R)-3-(4-amino-5-(3-(5-cyclopropyl-3-(2-(dimethylamino)ethoxy)thiophene-2-carboxamido)piperidin-1-yl)pyrrolo[2,1-f][1,2,4]triazin-7-yl)-2,5-dihydro-1H-pyrrole-1-carboxylate] | 1

Second part, the compound after the results:

IC50 [nM] | Compound
3 | CC(=O)N1CC=C(c2cc(N3CCC[C@@H](NC(=O)c4cc(C(C)C)[nH]n4)C3)c3c(N)ncnn23)C1 [Example 458, (R)-N-(1-(7-(1-acetyl-2,5-dihydro-1H-pyrrol-3-yl)-4-aminopyrrolo[2,1-f][1,2,4]triazin-5-yl)piperidin-3-yl)-5-isopropyl-1H-pyrazole-3-carboxamide]
6 | CC(=O)N1CC=C(c2cc(N3CCC[C@@H](NC(=O)c4cc(-c5ccccc5)n[nH]4)C3)c3c(N)ncnn23)C1 [Example 493, (R)-N-(1-(7-(1-acetyl-2,5-dihydro-1H-pyrrol-3-yl)-4-aminopyrrolo[2,1-f][1,2,4]triazin-5-yl)piperidin-3-yl)-3-phenyl-1H-pyrazole-5-carboxamide]
7 | CN1CCN(c2cccc(C(=O)N[C@@H]3CCCN(c4cc(-c5ccc(C#N)nc5)n5ncnc(N)c45)C3)n2)CC1 [Example 785, (R)—N-(1-(4-amino-7-(6-cyanopyridin-3-yl)pyrrolo[2,1-f][1,2,4]triazin-5-yl)piperidin-3-yl)-6-(4-methylpiperazin-1-yl)picolinamide]
44 | CS(=O)(=O)c1ccc(-c2cc(N3CCC[C@@H](NC(=O)c4ccnc(C#N)c4)C3)c3c(N)ncnn23)cc1 [Example 47, (R)-N-(1-(4-amino-7-(4-(methylsulfonyl)phenyl)pyrrolo[2,1-f][1,2,4]triazin-5-yl)piperidin-3-yl)-2-cyanoisonicotinamide, TFA]
29 | CC(=O)N1CC=C(c2cc(N3CCC[C@@H](NC(=O)c4cccc(N5CCOCC5)n4)C3)c3c(N)ncnn23)C1 [Example 703, (R)-N-(1-(7-(1-acetyl-2,5-dihydro-1H-pyrrol-3-yl)-4-aminopyrrolo[2,1-f][1,2,4]triazin-5-yl)piperidin-3-yl)-6-morpholinopicolinamide]
26 | CC(=O)c1ccc(-c2cc(N3CCC[C@@H](NC(=O)c4cccc(N5CCN(C)CC5)n4)C3)c3c(N)ncnn23)cc1 [Example 801, (R)-N-(1-(7-(4-acetylphenyl)-4-aminopyrrolo[2,1-f][1,2,4]triazin-5-yl)piperidin-3-yl)-6-(4-methylpiperazin-1-yl)picolinamide]
254 | CC(C)N1CCC(c2cc(C(F)F)sc2C(=O)N[C@@H]2CCCN(c3cc(-c4ccc(C(N)=O)nc4)n4ncnc(N)c34)C2)C1 (stereo partly drawn) [Example 404, 5-(4-amino-5-((3R)-3-(5-(difluoromethyl)-3-(1-isopropylpyrrolidin-3-yl)thiophene-2-carboxamido)piperidin-1-yl)pyrrolo[2,1-f][1,2,4]triazin-7-yl)picolinamide]
1 | Nc1ncnn2c(-c3ccc(-n4cnnn4)cc3)cc(N3CCC[C@@H](NC(=O)c4ccc(Cl)s4)C3)c12 [Example 249, (R)-N-(1-(7-(4-(1H-tetrazol-1-yl)phenyl)-4-aminopyrrolo[2,1-f][1,2,4]triazin-5-yl)piperidin-3-yl)-5-chlorothiophene-2-carboxamide, TFA]
38 | CC(=O)N1CC=C(c2cc(N3CCC[C@@H](NC(=O)c4sc(C)cc4N4CCOCC4)C3)c3c(N)ncnn23)C1 [Example 268, (R)—N-(1-(7-(1-acetyl-2,5-dihydro-1H-pyrrol-3-yl)-4-aminopyrrolo[2,1-f][1,2,4]triazin-5-yl)piperidin-3-yl)-5-methyl-3-morpholinothiophene-2-carboxamide]
91 | COC(=O)c1ccc(-c2cc(N3CCC[C@@H](NC(=O)c4ccc(Cl)s4)C3)c3c(N)ncnn23)n1C [Example 238, methyl 5-{4-amino-5-[(3R)-3-(5-chlorothiophene-2-amido)piperidin-1-yl]pyrrolo[2,1-f] [1,2,4]triazin-7-yl}-1-methyl-1H-pyrrole-2-carboxylate]
190 | Nc1ncnn2c(-c3ccc(=O)[nH]c3)cc(N3CCC[C@@H](NC(=O)c4ccc(C(F)F)s4)C3)c12 [Example 526, (R)-N-(1-(4-amino-7-(6-oxo-1,6-dihydropyridin-3-yl)pyrrolo[2,1-f][1,2,4]triazin-5-yl)piperidin-3-yl)-5-(difluoromethyl)thiophene-2-carboxamide]
4 | Nc1ncnn2c(C3=CCN(C(=O)c4cncs4)C3)cc(N3CCC[C@@H](NC(=O)c4ccc(Cl)s4)C3)c12 [Example 886, (R)-N-(1-(4-amino-7-(1-(thiazole-5-carbonyl)-2,5-dihydro-1H-pyrrol-3-yl)pyrrolo[2,1-f][1,2,4]triazin-5-yl)piperidin-3-y1)-5-chlorothiophene-2-carboxamide]
0.5 | NC(=O)c1ccc(-c2cc(N3CCC[C@@H](NC(=O)c4sc(Cl)cc4OC4CC5(CNC5)C4)C3)c3c(N)ncnn23)cn1 [Example 592, (R)-5-(5-(3-(3-((2-azaspiro[3.3]heptan-6-yl)oxy)-5-chlorothiophene-2-carboxamido)piperidin-1-yl)-4-aminopyrrolo[2,1-f][1,2,4]triazin-7-yl)picolinamide]
111 | CC(=O)N1CC=C(c2cc(N3CCC[C@@H](NC(=O)c4cccnc4)C3)c3c(N)ncnn23)C1 [Example 729, (R)-N-(1-(7-(1-acetyl-2,5-dihydro-1H-pyrrol-3-yl)-4-aminopyrrolo[2,1-f][1,2,4]triazin-5~ yl)piperidin-3-yl)nicotinamide]
